Laboratory results published in patent US10167295B2 (priority 2013, dated 2019).
“Also recorded” adds a separate entry of the source. Where a name gives a salt, the structure may show the parent alone. Read-outs that look alike come from different tables or passages of the source.

Assays:
DOR [1] = target: T1, DOR (Homo sapiens, UniProt P41143); assay: biochemical; assay type: binding
KOR = KOR (Homo sapiens, UniProt P41145); assay: biochemical; assay type: binding
MOR [2] = target: T2, MOR (Homo sapiens, UniProt P35372); assay: biochemical; assay type: binding
T2 sequence (P35372 whole entry): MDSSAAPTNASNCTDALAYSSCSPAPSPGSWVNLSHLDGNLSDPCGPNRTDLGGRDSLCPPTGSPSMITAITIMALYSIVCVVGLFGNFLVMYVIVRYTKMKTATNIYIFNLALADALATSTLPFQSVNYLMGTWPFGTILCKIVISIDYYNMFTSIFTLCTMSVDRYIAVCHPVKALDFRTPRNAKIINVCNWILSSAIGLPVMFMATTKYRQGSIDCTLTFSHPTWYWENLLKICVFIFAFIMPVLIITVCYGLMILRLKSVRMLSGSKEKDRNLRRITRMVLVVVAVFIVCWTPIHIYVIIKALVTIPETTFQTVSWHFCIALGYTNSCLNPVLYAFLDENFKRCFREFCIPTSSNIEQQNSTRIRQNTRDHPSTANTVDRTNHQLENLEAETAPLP

DOR [3] = target: T1, DOR; assay: biochemical; assay type: binding; remark: listed apart in the source
MOR [4] = target: T2, MOR; assay: biochemical; assay type: binding; remark: listed apart in the source
NOP [5] = target: T3, NOP (Homo sapiens, UniProt P41146); assay type: cell-based
T3 sequence (P41146 whole entry): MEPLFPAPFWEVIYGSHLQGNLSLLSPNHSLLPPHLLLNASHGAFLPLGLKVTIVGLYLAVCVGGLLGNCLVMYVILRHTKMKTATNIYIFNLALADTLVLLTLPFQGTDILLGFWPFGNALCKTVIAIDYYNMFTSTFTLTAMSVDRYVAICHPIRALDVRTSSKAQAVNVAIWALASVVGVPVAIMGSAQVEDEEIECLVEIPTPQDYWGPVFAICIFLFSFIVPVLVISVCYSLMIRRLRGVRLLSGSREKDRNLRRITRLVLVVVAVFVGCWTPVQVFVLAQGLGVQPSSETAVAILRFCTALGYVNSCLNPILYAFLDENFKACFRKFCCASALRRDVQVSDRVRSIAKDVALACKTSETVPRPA

[6] = test system: patients with post-operative pain; details: cited from earlier work; for analgesia in earlier clinical studies (in words): patients with post-operative pain, literature of the applicants
σ2 receptor = target: T4, σ2 receptor (Homo sapiens, UniProt Q5BJF2); assay type: binding; details: for inhibition at 10 µM: read-out: Inhibition (%) Sigma2 (σ2)
T4 construct: MDS Pharma Services (contract laboratory that ran the assay)
T4 sequence (Q5BJF2 whole entry, species assumed): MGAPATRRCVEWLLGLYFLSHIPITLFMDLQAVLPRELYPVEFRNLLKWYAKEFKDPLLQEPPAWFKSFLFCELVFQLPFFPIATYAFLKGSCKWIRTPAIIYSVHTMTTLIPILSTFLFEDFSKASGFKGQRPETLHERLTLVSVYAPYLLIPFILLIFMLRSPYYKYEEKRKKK

[7] = test system: patients with post-operative pain; assay: Clinical studies of analgesia in patients with post-operative pain; assay type: in vivo, human; details: for sex difference in analgesia: women vs men, post-operative pain (FIG. 8, 9)
NOP [8] = target: T3, NOP; assay type: binding; design: MDS Pharma Services (contract laboratory that ran the assay); details: for binding to the NOP receptor (in words): 10 μM; for inhibition at 10 µM: read-out: Inhibition (%) Nociceptin/orphanin F/Q (NOP)

T1 sequence (P41143 whole entry): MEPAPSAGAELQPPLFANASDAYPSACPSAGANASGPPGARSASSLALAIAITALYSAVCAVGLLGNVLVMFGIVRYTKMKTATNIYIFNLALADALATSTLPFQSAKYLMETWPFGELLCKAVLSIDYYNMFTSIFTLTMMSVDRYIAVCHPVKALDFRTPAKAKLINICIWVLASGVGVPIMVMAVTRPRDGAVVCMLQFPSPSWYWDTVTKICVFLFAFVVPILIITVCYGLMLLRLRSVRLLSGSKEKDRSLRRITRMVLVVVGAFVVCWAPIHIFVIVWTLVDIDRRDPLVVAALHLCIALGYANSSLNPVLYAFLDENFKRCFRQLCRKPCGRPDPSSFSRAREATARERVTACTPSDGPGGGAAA
Chain of KOR (P41145 whole entry): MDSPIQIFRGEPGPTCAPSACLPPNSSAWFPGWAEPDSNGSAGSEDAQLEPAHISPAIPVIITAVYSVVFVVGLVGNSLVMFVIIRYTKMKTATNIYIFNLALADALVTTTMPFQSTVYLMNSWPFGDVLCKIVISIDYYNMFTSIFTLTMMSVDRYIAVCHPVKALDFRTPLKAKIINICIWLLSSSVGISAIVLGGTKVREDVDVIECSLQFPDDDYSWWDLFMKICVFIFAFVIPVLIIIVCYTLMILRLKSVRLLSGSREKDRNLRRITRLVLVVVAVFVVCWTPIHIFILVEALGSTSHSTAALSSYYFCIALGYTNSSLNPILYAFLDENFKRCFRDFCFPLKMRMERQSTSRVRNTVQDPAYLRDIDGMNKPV

## CN(C(=O)/C=C/c1ccoc1)[C@@H]1CCC2(O)C3Cc4ccc(O)c5c4[C@@]2(CCN3CC2CC2)[C@H]1O5 (some centres unmarked) [compound 27035, TRK-820 HCl]
DOR [1]
  DOR: 95
DOR [1]; read-out: DOR mean % inhibition
  inhibition at 10 µM: 95.3%
KOR
  KOR: 91
KOR; read-out: KOR mean % inhibition
  inhibition at 10 µM: 90.5%
MOR [2]
  MOR: 94
MOR [2]; read-out: MOR mean % inhibition
  inhibition at 10 µM: 93.8%
DOR [3]
  Ki: 42 nM
MOR [4]
  Ki: 1.1 nM
NOP [5]
  NOP Tango Agonist: 3.5

## O=C(CCCN1CCC(O)(c2ccc(Cl)cc2)CC1)c1ccc(F)cc1 [haloperidol]
[6]
  analgesia in earlier clinical studies (in words): enhanced the analgesic effect of nalbuphine

## CC(C)=CCN1CCC2(C)c3cc(O)ccc3CC1C2C.CC(O)C(=O)O (centres unmarked) [Pentazocine, Pentazocine lactate]
σ2 receptor
  inhibition at 10 µM: 81%
[7]
  sex difference in analgesia: significantly great analgesia in women than in men; also recorded: significant difference in analgesia experience by females and males
NOP [8]
  binding to the NOP receptor (in words): binds to NOP receptors
  inhibition at 10 µM: 24%

## CN(C)CCCN1c2ccccc2Sc2ccc(Cl)cc21 [chlorpromazine]
[6]
  analgesia in earlier clinical studies (in words): enhanced the analgesic effect of nalbuphine

## C=CCN1CC[C@]23c4c5ccc(O)c4O[C@H]2C(=O)CC[C@@]3(O)[C@H]1C5 [Naloxone, naloxone hydrochloride]
σ2 receptor; 10 μM
  binding to the σ2 receptor (in words): does not bind to the σ2 receptor
σ2 receptor
  inhibition at 10 µM: -2%
[7]; naloxone 0.4 mg in combination with nalbuphine, men (FIG. 10 left)
  effect on nalbuphine anti-analgesia in males: abolished the anti-analgesic effect of nalbuphine in males resulting in significant analgesia
[7]; naloxone 0.4 mg in combination with nalbuphine, women (FIG. 10 right)
  effect on nalbuphine analgesia in females: enhanced nalbuphine analgesia in females
[6]
  analgesia in earlier clinical studies (in words): blocks anti-analgesia and produces enhanced and prolonged analgesia

## Oc1ccc2c(c1)[C@@]13CCCC[C@@]1(O)[C@@H](C2)N(CC1CCC1)CC3 [Butorphanol]
[7]
  sex difference in analgesia: significantly great analgesia in women than in men; also recorded: significantly greater analgesia in females than in males

## NCC(CC(=O)O)c1ccc(Cl)cc1 (centres unmarked) [baclofen]
[6]; oral, from three days prior to surgery, pentazocine 30 mg i.v. (Gordon 1995)
  effect on the analgesic effect of pentazocine: not significantly different from that of placebo

## Oc1ccc2c3c1O[C@H]1[C@@H](O)CC[C@@]4(O)[C@@H](C2)N(CC2CCC2)CC[C@]314 [Nalbuphine, Nalbuphine hydrochloride]
σ2 receptor
  inhibition at 10 µM: 15%
[7]; hydrochloride
  sex difference in analgesia: significantly greater analgesia in females than in males
[7]; listed as nalbuphine, hydrochloride
  sex difference in analgesia: significantly great analgesia in women than in men
[6]; men, placebo controlled study (Gear 1999)
  time by which men reported increasing pain (anti-analgesia): ~90 min
[6]
  analgesia in earlier clinical studies (in words): worse pain than those receiving placebo
NOP [8]; hydrochloride
  binding to the NOP receptor (in words): binds to NOP receptors
NOP [8]
  inhibition at 10 µM: 12%
